{"source": "patent US9221853B2", "about": "“Glyphosate dimethylamine salt crystal, preparation method and use thereof” (ZHEJIANG WYNCA CHEMICAL INDUSTRY GROUP CO., LTD., priority 2009, dated 2015)", "key": {"[1]": {"test_system": "annual weeds: Common Crabgrass (Digitaria sanguinalis), Goosegrass (Eleusine indica), Bitter Fleabane (Erigeron acer)", "settings": "CD Observation Method visual score (2.0-10.0); 60 g/mou glyphosate, field spray; observed 2.5, 5, 7 and 11 days after application", "source_text": "(§1) A CD Observation Method was used to make records.\n(§2) Assessment Criteria of the CD Observation Method\n(§3) A visual method was used with the following criteria: • 2.0 mild poisoning symptom in a spot of leaves • 4.0 a few leaves lost green or turned yellow while the plant growth was substantially normal • 6.0 leaves lost green or turned yellow or some leaves withered, while the stalk was nearly normal, and was yet able to grow slowly • 8.0 caulicle or inflorescence and rachis of leaves withered; most of stalk turned yellow or lost green mildly and was unable to grow normally; the plant died locally • 10.0 the whole plant died"}, "[2]": {"test_system": "perennial weeds: Alligator Alternanthera Herb (Alternanthera philoxeroides)", "settings": "CD Observation Method visual score (2.0-10.0); 60 g/mou glyphosate, field spray; observed 2.5, 5, 7 and 11 days after application", "source_text": "as §1, §2, §3"}, "weeds": {"test_system": "weeds", "settings": "field plot 2 m×2.5 m, spray, effective ingredient 60 g/mou (based on glyphosate) diluted by water to 30 l/mou", "experimental": "A sample was taken in an effective ingredient amount of 60 g/mou (based on glyphosate), and was diluted by water to 30 l/mou. The resulting diluted liquor was evenly sprayed into a test field plot with an area of 2 m×2.5 m, repeated twice. […] A CD Observation Method was used to make records."}}, "note": "Where a name gives a salt, the structure may show the parent alone.", "data": [{"smiles": "O=C(O)CNCP(=O)(O)O", "note": "[dimethylamine salt of N-phosphonomethyl glycine]", "values": [{"measurement": "Control on annual weeds", "setting": "[1]", "value": 9.6}, {"measurement": "Control on perennial weeds", "setting": "[2]", "value": 9.4}, {"measurement": "Days for weeds to die", "setting": "weeds", "value": "9~11 d"}]}]}
